Measured values taken from US8273880B2, “Pyrazole compounds with inhibitory activity against ROS kinase” (Korea Institute of Science and Technology, priority 2009, dated 2012).

Experiments:
Test in all cases: HotSpot kinase screening over 45 different kinases, single dose 10 μM
Assay type in all cases: biochemical
Settings in all cases: single dose concentration of 10 μM, 10 μM ATP
HIPK1 = biological target: T1, HIPK1 (Homo sapiens, UniProt Q86Z02)
T1 construct: purchased Reaction Biology Corporation
Experimental: (§1) Kinase screening was performed using a “HotSpot” assay platform commercially available from Reaction Biology Corporation. For this kinase screening, reaction buffers were based on 20 mM Hepes (pH 7.5), 10 mM MgCl2, 1 mM EGTA, 0.02% Brij35, 0.02 mg/mL BSA, 0.1 mM Na3VO4, 2 mM DTT, and 1% DMSO, with supplementary factors necessary for respective kinase reactions added thereto. In each enzyme reaction, […] of each kinase was used together with a fresh reaction buffer and appropriate supplementary factors. A solution of each compound in DMSO was added in a suitable concentration to the reaction buffer. Kinase reaction started with the introduction of […] (specific activity […]) and continued for 2 hours at room temperature.
(§2) 1) Screening of Compounds Over 45 Different Kinases
(§3) Each compound was tested twice at a single dose concentration of 10 μM. […] The reaction was performed with 10 μM ATP.

p70S6K = biological target: T2, p70S6K (Homo sapiens, UniProt P23443)
T2 construct: purchased Reaction Biology Corporation
Experimental: as §1, §2, §3

PIM1 = biological target: T3, PIM1 (Homo sapiens, UniProt P11309)
T3 construct: purchased Reaction Biology Corporation
Experimental: as §1, §2, §3

MST4 = biological target: T4, MST4 (Homo sapiens, UniProt Q9P289)
T4 construct: purchased Reaction Biology Corporation
Experimental: as §1, §2, §3

ABL1 = biological target: T5, ABL1 (Homo sapiens, UniProt P00519)
T5 construct: purchased Reaction Biology Corporation
T5 sequence (P00519 whole entry): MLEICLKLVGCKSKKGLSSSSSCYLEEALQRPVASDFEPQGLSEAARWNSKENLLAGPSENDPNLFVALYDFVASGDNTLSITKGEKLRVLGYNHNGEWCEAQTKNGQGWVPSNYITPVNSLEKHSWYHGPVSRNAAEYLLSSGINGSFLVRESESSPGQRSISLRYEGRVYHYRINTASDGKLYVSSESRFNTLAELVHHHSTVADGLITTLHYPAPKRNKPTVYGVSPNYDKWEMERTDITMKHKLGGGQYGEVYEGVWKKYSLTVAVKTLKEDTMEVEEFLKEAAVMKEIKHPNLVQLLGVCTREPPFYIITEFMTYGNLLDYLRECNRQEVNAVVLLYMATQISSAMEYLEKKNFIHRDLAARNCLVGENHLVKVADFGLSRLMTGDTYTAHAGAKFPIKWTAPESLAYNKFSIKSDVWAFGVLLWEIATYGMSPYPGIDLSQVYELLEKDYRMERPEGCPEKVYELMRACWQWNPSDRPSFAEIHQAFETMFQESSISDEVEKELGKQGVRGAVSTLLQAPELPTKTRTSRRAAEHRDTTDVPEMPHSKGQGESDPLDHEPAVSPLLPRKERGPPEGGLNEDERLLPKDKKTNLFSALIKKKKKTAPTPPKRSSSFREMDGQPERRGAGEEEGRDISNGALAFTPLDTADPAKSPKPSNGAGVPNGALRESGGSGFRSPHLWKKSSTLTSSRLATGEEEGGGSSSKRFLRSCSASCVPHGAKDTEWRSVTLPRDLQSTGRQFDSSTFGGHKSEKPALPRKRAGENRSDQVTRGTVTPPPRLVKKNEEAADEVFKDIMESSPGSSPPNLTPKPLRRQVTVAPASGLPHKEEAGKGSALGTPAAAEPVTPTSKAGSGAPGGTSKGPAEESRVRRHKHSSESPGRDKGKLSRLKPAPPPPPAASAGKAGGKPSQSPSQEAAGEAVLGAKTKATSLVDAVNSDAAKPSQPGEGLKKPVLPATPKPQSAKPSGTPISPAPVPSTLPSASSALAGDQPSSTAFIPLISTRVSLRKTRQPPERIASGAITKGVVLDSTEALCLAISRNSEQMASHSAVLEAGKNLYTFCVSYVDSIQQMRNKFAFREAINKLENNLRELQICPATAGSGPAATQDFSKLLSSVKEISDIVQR
Experimental: as §1, §2, §3

YES = biological target: T6, YES (Homo sapiens, UniProt P07947)
T6 construct: purchased Reaction Biology Corporation
T6 sequence (P07947 whole entry): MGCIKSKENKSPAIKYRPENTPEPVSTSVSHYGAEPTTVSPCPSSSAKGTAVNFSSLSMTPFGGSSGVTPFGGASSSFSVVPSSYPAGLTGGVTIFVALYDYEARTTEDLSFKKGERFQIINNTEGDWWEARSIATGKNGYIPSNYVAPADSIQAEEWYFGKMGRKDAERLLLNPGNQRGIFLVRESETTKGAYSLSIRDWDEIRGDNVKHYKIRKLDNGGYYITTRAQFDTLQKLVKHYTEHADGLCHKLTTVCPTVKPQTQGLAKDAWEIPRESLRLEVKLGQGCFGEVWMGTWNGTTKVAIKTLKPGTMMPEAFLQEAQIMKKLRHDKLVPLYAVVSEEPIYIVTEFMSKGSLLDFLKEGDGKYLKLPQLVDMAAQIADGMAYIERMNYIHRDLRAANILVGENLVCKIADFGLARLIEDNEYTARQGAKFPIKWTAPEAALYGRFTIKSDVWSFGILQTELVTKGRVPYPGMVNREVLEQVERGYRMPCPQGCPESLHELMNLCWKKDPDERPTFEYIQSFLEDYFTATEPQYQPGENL
Experimental: as §1, §2, §3

PAK4 = biological target: T7, PAK4 (Homo sapiens, UniProt O96013)
T7 construct: purchased Reaction Biology Corporation
T7 sequence (O96013 whole entry): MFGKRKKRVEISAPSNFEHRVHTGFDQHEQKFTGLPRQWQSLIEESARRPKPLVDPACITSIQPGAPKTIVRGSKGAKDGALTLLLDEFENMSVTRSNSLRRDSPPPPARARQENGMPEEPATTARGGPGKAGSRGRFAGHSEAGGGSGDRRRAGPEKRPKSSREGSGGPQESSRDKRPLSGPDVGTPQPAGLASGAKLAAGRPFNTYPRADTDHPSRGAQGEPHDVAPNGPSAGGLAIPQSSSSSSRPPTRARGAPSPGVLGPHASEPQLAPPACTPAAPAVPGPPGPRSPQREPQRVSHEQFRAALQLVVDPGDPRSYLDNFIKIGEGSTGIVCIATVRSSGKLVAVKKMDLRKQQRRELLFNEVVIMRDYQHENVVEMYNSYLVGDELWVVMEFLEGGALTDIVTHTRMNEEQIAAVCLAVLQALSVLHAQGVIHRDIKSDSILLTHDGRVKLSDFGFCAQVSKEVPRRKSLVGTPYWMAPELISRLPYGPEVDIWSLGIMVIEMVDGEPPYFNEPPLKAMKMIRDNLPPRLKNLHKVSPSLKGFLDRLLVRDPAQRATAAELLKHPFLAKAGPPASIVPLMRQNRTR
Experimental: as §1, §2, §3

RET = biological target: T8, RET (Homo sapiens, UniProt P07949)
T8 construct: purchased Reaction Biology Corporation
Experimental: as §1, §2, §3

CHK1 = biological target: T9, CHK1 (Homo sapiens, UniProt O14757)
T9 construct: purchased Reaction Biology Corporation
T9 sequence (O14757 whole entry): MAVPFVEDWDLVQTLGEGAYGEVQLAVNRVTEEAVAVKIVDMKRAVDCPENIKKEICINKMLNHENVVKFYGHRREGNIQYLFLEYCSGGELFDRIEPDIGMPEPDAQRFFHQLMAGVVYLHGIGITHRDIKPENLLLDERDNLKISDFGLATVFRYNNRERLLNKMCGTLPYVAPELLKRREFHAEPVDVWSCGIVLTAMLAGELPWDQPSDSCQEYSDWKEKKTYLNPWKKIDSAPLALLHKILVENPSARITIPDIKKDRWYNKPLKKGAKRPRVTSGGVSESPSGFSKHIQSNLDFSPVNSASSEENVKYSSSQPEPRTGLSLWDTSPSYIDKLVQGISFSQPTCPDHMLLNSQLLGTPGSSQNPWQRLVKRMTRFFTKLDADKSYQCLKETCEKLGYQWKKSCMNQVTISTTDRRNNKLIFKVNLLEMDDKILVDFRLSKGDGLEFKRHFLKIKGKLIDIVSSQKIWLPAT
Experimental: as §1, §2, §3

FLT1 = biological target: T10, FLT1 (Homo sapiens, UniProt P17948)
T10 construct: purchased Reaction Biology Corporation
Experimental: as §1, §2, §3

JNK1a1 = biological target: T11, JNK1a1 (Homo sapiens, UniProt P45983)
T11 construct: purchased Reaction Biology Corporation
Experimental: as §1, §2, §3

c-Kit = biological target: T12, c-Kit (Homo sapiens, UniProt P10721)
T12 construct: purchased Reaction Biology Corporation
Experimental: as §1, §2, §3

RON/MST1R = biological target: T13, RON/MST1R (Homo sapiens, UniProt Q04912)
T13 construct: purchased Reaction Biology Corporation
Experimental: as §1, §2, §3

MEK1 = biological target: T14, MEK1 (Homo sapiens, UniProt Q02750)
T14 construct: purchased Reaction Biology Corporation
Experimental: as §1, §2, §3

FYN = biological target: T15, FYN (Homo sapiens, UniProt P06241)
T15 construct: purchased Reaction Biology Corporation
Experimental: as §1, §2, §3

c-MET = biological target: T16, c-MET (Homo sapiens, UniProt P08581)
T16 construct: purchased Reaction Biology Corporation
Experimental: as §1, §2, §3

c-Src = biological target: T17, c-Src (Homo sapiens, UniProt P12931)
T17 construct: purchased Reaction Biology Corporation
Experimental: as §1, §2, §3

BRAF = biological target: T18, BRAF (Homo sapiens, UniProt P15056)
T18 construct: purchased Reaction Biology Corporation
T18 sequence (P15056 whole entry): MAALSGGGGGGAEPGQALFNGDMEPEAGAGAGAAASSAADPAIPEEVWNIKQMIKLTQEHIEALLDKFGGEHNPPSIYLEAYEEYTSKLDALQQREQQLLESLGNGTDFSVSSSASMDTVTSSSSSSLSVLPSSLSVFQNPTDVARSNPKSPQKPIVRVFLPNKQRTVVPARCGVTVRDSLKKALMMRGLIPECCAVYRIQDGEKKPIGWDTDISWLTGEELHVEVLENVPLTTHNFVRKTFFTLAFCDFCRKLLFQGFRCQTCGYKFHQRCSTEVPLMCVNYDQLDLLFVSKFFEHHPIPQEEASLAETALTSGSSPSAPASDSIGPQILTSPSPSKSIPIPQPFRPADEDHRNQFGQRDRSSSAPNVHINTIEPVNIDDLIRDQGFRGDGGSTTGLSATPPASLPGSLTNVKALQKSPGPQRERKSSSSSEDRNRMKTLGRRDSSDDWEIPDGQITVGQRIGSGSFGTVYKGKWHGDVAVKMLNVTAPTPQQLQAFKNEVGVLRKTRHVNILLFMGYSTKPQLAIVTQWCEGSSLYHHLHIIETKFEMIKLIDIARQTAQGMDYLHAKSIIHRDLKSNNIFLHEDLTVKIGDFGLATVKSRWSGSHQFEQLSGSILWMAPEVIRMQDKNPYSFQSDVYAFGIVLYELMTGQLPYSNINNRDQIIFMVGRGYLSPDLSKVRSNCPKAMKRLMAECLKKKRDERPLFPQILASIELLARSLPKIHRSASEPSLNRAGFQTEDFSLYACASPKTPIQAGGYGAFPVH
Experimental: as §1, §2, §3

JAK1 = biological target: T19, JAK1 (Homo sapiens, UniProt P23458)
T19 construct: purchased Reaction Biology Corporation
T19 sequence (P23458 whole entry): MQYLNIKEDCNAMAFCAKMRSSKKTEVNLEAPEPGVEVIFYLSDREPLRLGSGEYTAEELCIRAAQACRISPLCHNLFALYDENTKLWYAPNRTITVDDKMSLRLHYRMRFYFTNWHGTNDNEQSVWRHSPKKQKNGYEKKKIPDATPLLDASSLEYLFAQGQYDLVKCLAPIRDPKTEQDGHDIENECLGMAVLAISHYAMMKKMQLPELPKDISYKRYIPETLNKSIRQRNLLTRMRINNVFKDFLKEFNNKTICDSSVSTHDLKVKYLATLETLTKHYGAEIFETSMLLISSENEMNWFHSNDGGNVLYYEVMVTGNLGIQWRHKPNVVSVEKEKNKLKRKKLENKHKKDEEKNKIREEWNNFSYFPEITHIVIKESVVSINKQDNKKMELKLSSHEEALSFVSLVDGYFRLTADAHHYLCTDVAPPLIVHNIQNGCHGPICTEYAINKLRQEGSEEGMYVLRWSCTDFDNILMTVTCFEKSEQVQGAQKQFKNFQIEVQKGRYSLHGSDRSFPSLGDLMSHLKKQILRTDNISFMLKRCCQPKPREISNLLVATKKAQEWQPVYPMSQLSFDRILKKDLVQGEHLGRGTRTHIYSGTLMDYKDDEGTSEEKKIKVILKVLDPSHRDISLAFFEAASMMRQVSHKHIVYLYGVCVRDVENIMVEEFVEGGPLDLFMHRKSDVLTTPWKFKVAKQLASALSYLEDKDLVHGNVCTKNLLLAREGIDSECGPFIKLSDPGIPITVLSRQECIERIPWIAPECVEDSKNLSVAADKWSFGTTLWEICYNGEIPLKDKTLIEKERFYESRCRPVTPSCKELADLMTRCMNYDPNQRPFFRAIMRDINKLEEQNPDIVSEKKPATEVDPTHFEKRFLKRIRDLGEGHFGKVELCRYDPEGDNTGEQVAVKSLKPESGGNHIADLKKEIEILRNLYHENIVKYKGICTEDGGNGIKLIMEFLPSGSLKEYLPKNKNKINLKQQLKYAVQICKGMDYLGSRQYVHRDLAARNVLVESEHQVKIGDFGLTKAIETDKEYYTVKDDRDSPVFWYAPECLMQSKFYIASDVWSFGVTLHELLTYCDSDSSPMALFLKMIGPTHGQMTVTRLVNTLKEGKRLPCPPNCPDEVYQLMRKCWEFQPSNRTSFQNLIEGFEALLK
Experimental: as §1, §2, §3

TRKA/NTRK1 = biological target: T20, TRKA/NTRK1 (Homo sapiens, UniProt P04629)
T20 construct: purchased Reaction Biology Corporation
Experimental: as §1, §2, §3

Ros/Ros1 = biological target: T21, Ros/Ros1 (Homo sapiens, UniProt P08922)
T21 construct: purchased Reaction Biology Corporation
Experimental: as §1, §2, §3

AKT1 (dPH, S473D) = biological target: T22, AKT1 (dPH, S473D) (Homo sapiens, UniProt P31749, S473D)
T22 construct: AKT1 (dPH, S473D); purchased Reaction Biology Corporation
T22 sequence (P31749 118-480 S473D limits assumed): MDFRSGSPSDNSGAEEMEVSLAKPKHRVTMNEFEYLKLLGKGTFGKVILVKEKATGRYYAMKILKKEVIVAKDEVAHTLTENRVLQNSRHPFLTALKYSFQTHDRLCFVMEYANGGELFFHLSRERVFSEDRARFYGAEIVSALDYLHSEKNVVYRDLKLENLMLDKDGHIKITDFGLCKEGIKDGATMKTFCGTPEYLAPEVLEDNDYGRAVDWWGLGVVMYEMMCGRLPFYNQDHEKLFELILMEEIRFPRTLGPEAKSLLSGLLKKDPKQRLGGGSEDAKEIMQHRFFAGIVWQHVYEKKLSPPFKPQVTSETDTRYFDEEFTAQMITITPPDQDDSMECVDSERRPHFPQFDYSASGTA
Experimental: as §1, §2, §3

IR = biological target: T23, IR (Homo sapiens, UniProt P06213)
T23 construct: purchased Reaction Biology Corporation
Experimental: as §1, §2, §3

[1] = compared to enzyme activity in DMSO control

inhibition at 10 µM (HIPK1): -3.43%
activity at 10 µM (HIPK1; [1]): 103%
inhibition at 10 µM (p70S6K): 5.79%
activity at 10 µM (p70S6K; [1]): 94.2%
inhibition at 10 µM (PIM1): 5.91%
activity at 10 µM (PIM1; [1]): 94.1%
inhibition at 10 µM (MST4): -1.54%
activity at 10 µM (MST4; [1]): 102%
inhibition at 10 µM (ABL1): 20.4%
activity at 10 µM (ABL1; [1]): 79.6%
inhibition at 10 µM (YES): -2.59%
activity at 10 µM (YES; [1]): 103%
inhibition at 10 µM (PAK4): 1.37%
activity at 10 µM (PAK4; [1]): 98.6%
inhibition at 10 µM (RET): 6.65%
activity at 10 µM (RET; [1]): 93.3%
inhibition at 10 µM (CHK1): 2.36%
activity at 10 µM (CHK1; [1]): 97.6%
inhibition at 10 µM (FLT1): -1.67%
activity at 10 µM (FLT1; [1]): 102%
inhibition at 10 µM (JNK1a1): 3.83%
activity at 10 µM (JNK1a1; [1]): 96.2%
inhibition at 10 µM (c-Kit): 2.85%
activity at 10 µM (c-Kit; [1]): 97.2%
inhibition at 10 µM (RON/MST1R): 28.8%
activity at 10 µM (RON/MST1R; [1]): 71.1%
inhibition at 10 µM (MEK1): -6.97%
activity at 10 µM (MEK1; [1]): 107%
inhibition at 10 µM (FYN): -7.86%
activity at 10 µM (FYN; [1]): 108%
inhibition at 10 µM (c-MET): 5.82%
activity at 10 µM (c-MET; [1]): 94.2%
inhibition at 10 µM (c-Src): 16.2%
activity at 10 µM (c-Src; [1]): 83.8%
inhibition at 10 µM (BRAF): 8.97%
activity at 10 µM (BRAF; [1]): 91%
inhibition at 10 µM (JAK1): 9.15%
activity at 10 µM (JAK1; [1]): 90.8%
inhibition at 10 µM (TRKA/NTRK1): -0.14%
activity at 10 µM (TRKA/NTRK1; [1]): 100%
inhibition at 10 µM (Ros/Ros1): 93.9%
activity at 10 µM (Ros/Ros1; [1]): 6.08%
inhibition at 10 µM (AKT1 (dPH, S473D)): -2.97%
activity at 10 µM (AKT1 (dPH, S473D); [1]): 103%
inhibition at 10 µM (IR): 7.01%
activity at 10 µM (IR; [1]): 93%
Compound: Cc1cc(O)cc(-c2nn(CC#N)cc2-c2cc(NC[C@H](C)O)nc(-c3cccnc3)n2)c1 [Example 10, [4-[6-(2(S)-hydroxypropylamino)-2-pyridin-3-yl-pyrimidin-4-yl]-3-(3-hydroxy-5-methylphenyl)-pyrazol-1-yl]acetonitrile]
